The results in this text go back to US9026372B2, “Methods for providing a system of care for a high-dose oxazaphosphorine drug regimen” (Accentia Biopharmaceuticals, Inc., priority 2007, dated 2015).

In data set [1] the test system is white blood cell (WBC) count. The source says:
On Day 6, (six days after completion of high-dose cyclophosphamide treatment), patients received G-CSF.

For data set [2], the system named is aggressive relapsing-remitting multiple sclerosis.
Source text: All 9 patients had aggressive relapsing-remitting multiple sclerosis, 8 of whom failed conventional therapy and 1 was untreated. Median age at time of entry was 29 years (range of 20 to 47 years). The mean number of gadolinium enhancing lesions on baseline MRI was 6.5 (range 3-11).

Where two headings read alike, the source gives them in different places.

Take `O=P1(N(CCCl)CCCl)NCCCO1` (centres unmarked) [cyclophosphamide]: the “minimum WBC” value in data set [1] (patient HiCy01, never had GEL, suspected exacerbations) is given as 70; in data set [1] (patient HiCy07, went to 0 GEL, single GEL on follow-up MRI), 6; in data set [1] (patient HiCy14, went to 0 GEL, single GEL on follow-up MRI), 31. In addition, the “minimum WBC count” value in data set [1] (patient HiCy11, GEL on every follow up) was 24; in data set [1] (patient HiCy19, GEL on every follow up, only 6 months of follow-up), 50; in data set [1] (patients HiCy09 and HiCy15 (both), 0 GEL), 12. Besides, the “WBC count (minimum)” value in data set [1] (patients HiCy05 and HiCy13, within two weeks of treatment, no GEL up to 24 months follow-up) is on record as 0. Also, the “reduction in disability (EDSS)” value in data set [2] (9 patients, at baseline 66% had EDSS of 5.0 or more) amounted to 50%. In addition, the “reduction in gadolinium enhancements” value in data set [2] (at 6 months following 50 mg/kg/day intravenously for four days, 9 patients, baseline mean 6.5 lesions) worked out at 90%; in data set [2] (by 18 months following 50 mg/kg/day intravenously for four days, 9 patients) it was 94%. Besides, the adverse outcomes in data set [2] (initial cohort of 9 patients with severe relapsing MS) was “no significant adverse outcomes”. In addition, in data set [2] (of 9 patients, after treatment), the “patients having no disability (EDSS score of 0)” value was 3 patients. Besides, in data set [2] (of 9 patients, after treatment), the “patients with EDSS score of 1” value was determined as 1 patient. In data set [2] (of 9 patients, started on conventional MS therapy at 18 months), the “patients with an exacerbation during follow-up” value is recorded as “one”.
